Data reported in patent publication US20210393636A1, “TREATMENT OF CNS AND DEVELOPMENTAL DISORDERS USING HIGH DOSE 5-FORMYL-(6S)-TETRAHYDROFOLATE” (priority 2019, published 2021).

Experiments:
[1] = Folate absorption in serum after single high-dose oral administration of different folates (Example 1); conditions: serum, 4 mg/kg single oral dose; for 5-MTHF: D- and L-forms
Protocol: For this study, 4 mg/kg folate was administered as a single dose to 250-300 g male Wistar rats. […] For each form of folate 4 time points of 30 min, 1 h, 2 h and 4 h were evaluated. For each time point 2 rats were used. The folate form dissolved in 0.5 ml buffered saline was administered orally using a blunt needle attached to a 1 ml syringe. The rats were euthanized by CO2 inhalation.
Blood was drawn cardiac puncture, allowed to clot for 30 min, serum separated, diluted in equal volume of 4% ascorbate pH 7.2 and kept frozen at −20 C. Folate forms in the serum was determined by HPLC and the peaks were quantified by comparing to known standards as described below.
Folate standards (5-MTHF, FA, THF and Formyl-THF) and 13C-labeled stable isotope internal standards (13C5-5-MTHF, 13C5-FA and 13C-Formyl-THF) were obtained from Schircks Laboratories (Switzerland). Formic acid, ascorbic acid and dithiothreitol (DTT) were obtained from Fluka and Optima LC-MS grade methanol from Fisher Scientific. Stock standards for each folate metabolite and internal standards were prepared as 1 mmol/L solutions in water containing 2 mg/mL ascorbic acid and stored at −80° C. Microtiter plates used for were purchased from NUNC.
Liquid chromatography electrospray ionization mass spectrometry (LC-ESI-MS/MS) analysis of plasma 5-MTHF, FA, THF, Formyl-THF was performed on a Sciex 5500QTRAP mass spectrometer (Foster City, Calif., USA) coupled with a Shimadzu ultra-high pressure Nexera chromatograph system (Kyoto, Japan). The MS/MS experiments were performed under positive electrospray ionization (+ESI) with multiple-reaction monitoring (MRM) using a Turbolon Spray electrospray source operating at a voltage of 5.5 kV and desolvation temperature of 500° C. The calibration curve was prepared in water containing 2 mg/mL ascorbic acid over a range of 12.5-400 nmol/L for each folate analyte.
Sample preparation involved combining 50 µl of blank, standard, control or sample with 10μ1 62.5 mM dithiothreitol, 20 mg/ml ascorbic acid and 2.5 μM 13C5-5-MTHF, 13C5-FA, 13C-Formyl-THF in 1.5 mL Eppendorf tubes, mixed by vortex and incubated for 10 minutes at room temperature in the dark. Next, samples were deproteinized with 5 volumes of methanol containing 2 mg/ml of ascorbic acid and vortexed and centrifuged at 14800 rpm for 10 minutes. Supernatant was loaded in a 96-well microtiter plate for analysis. The samples were analyzed following injection of 10 μL of extract on a Synergi Hydro 4μ 150×3 mm with a 4×2 mm SecurityGuard column (Phenomenex, Calif., USA) maintained at 40° C. (Phenomenex) and eluted in a gradient with buffer A (100% water with 0.1% formic acid) and buffer B (100% Methanol with 0.1% formic acid). The flow rate was 0.5 mL/min, with a gradient over a total run time of 6 min: 0.0-2.0 min, 0-100% B; 2.5 min, 100% B; 2.6-6.0 min, 0% B.
Total analytical analysis, including column re-equilibration, was 6 minutes. Eluent flow from the column was diverted to waste at the beginning and end of each run and was only directed to the source for the period from 1.5-3.5 minutes. The LC-MS/MS data was acquired and processed using Analyst 1.5.2 software (Sciex).
Values reported include both D- and L-forms.

[2] = Total folates in serum 24 h after oral administration of folate forms (Example 2); format: in vivo, rats; set-up: Total Folates in Serum (total 5-MTHF D- and L- plus folic acid): unit not given here; conditions: 4 mg/kg oral, 24 h
Protocol: (§1) This study evaluated the difference in folate absorption in non-pregnant rats, pregnant rats, pregnant rats injected with a control antibody, and pregnant rats injected with antibody to the folate receptor alpha. Eight (8) rats were assigned to each group for a total of thirty-two (32) rats. Two rats within each group were administered a single oral dose of PGA, 5-methyl-(6S)-THF, folinic acid or 5-formyl-(6S)-THF as a liquid solution and sacrificed at 24-hours to evaluate folate absorption patterns. The total amount of each form of folate administered to each rat was 4 mg/kg.
Serum was withdrawn immediately before the rat was sacrificed. For extraction of folate from serum, an aliquot of the serum was diluted in 3 volumes of phosphate buffer pH 5.5, placed in a boiling water bath for 10 min, cooled, the protein precipitate separated by centrifugation and the clear supernatant was assayed for folate concentration.

[3] = Tissue distribution of folates 24 h after oral administration of folate forms (Example 2); format: in vivo, rats; conditions: 4 mg/kg oral, 24 h; for Total 5-MTHF + PGA in Brain: derived from cortex and cerebellum
Protocol: as §1
Additional analyses were performed in various tissues of the pregnant and non-pregnant rats. For tissues other than serum, each tissue was collected, weighed and stored at −20 C. For the folate assay each tissue was suspended in 3 volumes of phosphate buffer containing 2% ascorbic acid pH 7.4 and homogenized using a polytron probe. An aliquot of this homogenate was diluted 10 fold in PO4 buffer PH 5.5 containing 0.2% ascorbic acid, in a glass tube, sealed and placed in a boiling water bath for 10 min. The tube was cooled to room temperature, precipitate removed by centrifugation and the clear supernatant assayed for folate. Brain concentrations were derived from cortex and cerebellum.

[4] = Tissue distribution of folates 24 h after oral administration of folate forms to rat pups, with and without FR Ab (Example 3); format: in vivo; conditions: PND 21 rat pups, 4 mg/kg oral, 24 h
Protocol: To determine tissue distribution of orally administered folate forms in young rat pups and study the effect of folate receptor antibodies on this distribution. PND 21 rat pups weighing about 50 g were administered folate forms orally at a dose of 4 mg/kg. Animals were euthanized after 24 h and tissues collected for analyzing total methylfolate in each tissue to provide a measure of normal distribution.

[5] = non-pregnant rats, without antibody

## CN1c2c(nc(N)[nH]c2=O)NC[C@@H]1CNc1ccc(C(=O)N[C@@H](CCC(=O)O)C(=O)O)cc1 [5-methyl-(6S)-THF, 5-methyl-(6S)-tetrahydrofolate]
[1]; 0.5 hr
  THF: 4.4 ng/mL
  Total Uptake: 188.5 ng/mL
  5-MTHF: 184.1 ng/mL
[1]; 1 hr
  THF: 9.0 ng/mL
  Total Uptake: 223.8 ng/mL
  5-MTHF: 214.8 ng/mL
[1]; 2 hr
  THF: 8.7 ng/mL
  Total Uptake: 258.4 ng/mL
  5-MTHF: 249.7 ng/mL
[1]; 4 hr
  5-FoTHF: 5.1 ng/mL
  THF: 19.6 ng/mL
  Total Uptake: 216.2 ng/mL
  5-MTHF: 191.4 ng/mL
[2]; Non-pregnant rats
  Total Folates in Serum (total 5-MTHF D- and L- plus folic acid): 60.0
[2]; pregnant rats, Control Ab + Form
  Total Folates in Serum (total 5-MTHF D- and L- plus folic acid): 143.3
[2]; pregnant rats, FRAb + Form
  Total Folates in Serum (total 5-MTHF D- and L- plus folic acid): 190.9
[2]; pregnant rats, Form Only
  Total Folates in Serum (total 5-MTHF D- and L- plus folic acid): 85.5
[3]; [5]
  Total 5-MTHF + PGA in Cerebellum: 1.9
  Total 5-MTHF + PGA in Cortex: 1.9
  Total 5-MTHF + PGA in Kidney: 36.4
  Total 5-MTHF + PGA in Liver: 75.4
  Total 5-MTHF + PGA in Ovary: 7.2
  Total 5-MTHF + PGA in Brain: 1.9
[3]; pregnant rats, + Control IgG
  Total 5-MTHF + PGA in Embryo: 2.0 ng/mg
  Total 5-MTHF + PGA in Kidney: 20.3 ng/mg
  Total 5-MTHF + PGA in Liver: 148.5 ng/mg
  Total 5-MTHF + PGA in Ovary: 14.9 ng/mg
  Total 5-MTHF + PGA in Placenta: 2.3 ng/mg
  Total 5-MTHF + PGA in Brain: 3.2 ng/mg
[3]; pregnant rats, + FRAb
  Total 5-MTHF + PGA in Embryo: 1.9 ng/mg
  Total 5-MTHF + PGA in Kidney: 64.9 ng/mg
  Total 5-MTHF + PGA in Liver: 148.0 ng/mg
  Total 5-MTHF + PGA in Ovary: 27.0 ng/mg
  Total 5-MTHF + PGA in Placenta: 2.1 ng/mg
  Total 5-MTHF + PGA in Brain: 3.7 ng/mg
[3]; pregnant rats, w/o IgG
  Total 5-MTHF + PGA in Embryo: 4.6 ng/mg
  Total 5-MTHF + PGA in Kidney: 25.5 ng/mg
  Total 5-MTHF + PGA in Liver: 58.6 ng/mg
  Total 5-MTHF + PGA in Ovary: 6.6 ng/mg
  Total 5-MTHF + PGA in Placenta: 6.4 ng/mg
  Total 5-MTHF + PGA in Brain: 2.4 ng/mg
[4]; + FRAb (100 ug IP 24 h prior)
  Folate (mean), Cerebellum: 60.7 ng/mg
  Folate (mean), Cerebrum: 3.8 ng/mg
  Folate (mean), Kidney: 116.4 ng/mg
  Folate (mean), Liver: 250.34 ng/mg
[4]; no FRAb
  Folate (mean), Cerebellum: 26.1 ng/mg
  Folate (mean), Cerebrum: 4.3 ng/mg
  Folate (mean), Kidney: 86.6 ng/mg
  Folate (mean), Liver: 158.5 ng/mg
